In ChEMBL document CHEMBL1129890, “Synthesis and evaluation of dual action cephalosporins as elastase inhibitors” (Bioorg Med Chem Lett, 1997):

Columns and labels:
[1] = Steady state velocity of inhibitor concentration required to inhibit porcine pancreatic elastase was determined by using Lineweaver-Burke Plot; parameters: species or system Sus scrofa
[2] = Hydrolytic stability was expressed as t1/2; format: physicochemical
[3] = Steady state velocity of inhibitor concentration required to inhibit porcine pancreatic elastase was determined by using Dixon Plot; parameters: species or system Sus scrofa

Row | SMILES | IC50 [1] [nM] | half-life [2] [h] | IC50 [3] [nM]
1 | CO[C@H]1C(=O)N2C(C(=O)OC(C)(C)C)=C(COC(=O)Cc3ccccc3Nc3c(Cl)cccc3Cl)CS(=O)(=O)C12 (some centres undefined) | 110 | 60 | 
2 | CO[C@H]1C(=O)N2C(C(=O)OC(C)(C)C)=C(C)CS(=O)(=O)C12 (some centres undefined) | 73000 |  | 11000
3 | CC(C)(C)OC(=O)C1=C(COC(=O)Cc2ccccc2Nc2c(Cl)cccc2Cl)CS(=O)(=O)C2[C@@H](Cl)C(=O)N12 (some centres undefined) | 180 | 73 | 680
4 | CO[C@H]1C(=O)N2C(C(=O)OC(C)(C)C)=C(COC(=O)c3ccccc3OC(C)=O)CS(=O)(=O)C12 (some centres undefined) | 110 | 19 | 
5 | CC(=O)Oc1ccccc1C(=O)OCC1=C(C(=O)OC(C)(C)C)N2C(=O)[C@H](Cl)C2S(=O)(=O)C1 (some centres undefined) | 250 | 2.3 | 350
6 | CC1=C(C(=O)OC(C)(C)C)N2C(=O)[C@H](Cl)C2S(=O)(=O)C1 (some centres undefined) | 35000 |  | 11000
